In ChEMBL document CHEMBL1151251, “Monanchorin, a bicyclic alkaloid from the sponge Monanchora ungiculata” (J Nat Prod, 2004):
Converted amounts (≈) assume the structure as drawn.

Assay: Cytotoxicity against mouse IC2 cells
Format: functional, cell-based

| SMILES | IC50 |
| --- | --- |
| CC[C@@H]1C=CCC[C@]2(C[C@H]3CC[C@H]4[C@@H](C(=O)O)[C@@]5(CCC[C@H](C)O5)N=C(N2)N34)O1 [CRAMBESIDIN ACID] | 25 µg/mL (≈ 62 µM) |
| CCCCC[C@@H]1O[C@@H]2CC[C@@H]1NC(=N)N2 [MONANCHORIC ACID] | 11.3 µg/mL (≈ 53.5 µM) |
